Assay results taken from patent publication US20240327351A1, “AMIDE AND ETHER SUBSTITUTED N-(1H-INDOL-7-YL)BENZENESULFONAMIDES AND USES THEREOF” (TRIANA BIOMEDICINES, INC., priority 2021, published 2024).

Columns and labels:
[1] = biological target: DCAF15/RBM39 (Homo sapiens, UniProt Q14498+Q66K64); experiment: AlphaLISA compound-induced DCAF15-RBM39 ternary complex formation; type: binding; conditions: His-tagged DCAF15 complex and biotin-carrying RBM39
Description: Example 6: Quantitative Evaluation of Compound-Induced Ternary Complex Formation Using Amplified Luminescent Proximity Homogeneous Assay
Compound-induced DCAF15-RBM39 ternary complex formation was monitored using AlphaLISA® assays (Perkin Elmer, Waltham, MA). Test compounds were first collected in a 384-well microplate (cat. #781280, Grenier Bio-One, Monroe, NC) as 2 mM stocks in 100% dimethyl sulfoxide (DMSO). These stocks were then serially diluted in DMSO by 3-fold into a new plate (cat. #781280, Grenier Bio-One, Monroe, NC) using a Mosquito HTS dispenser (mosquito@ HTS, SPT Labtech, Boston, MA). 0.2 ul of these diluted stocks were then dispensed into a 384-well Optiplate (cat. #6007290, Perkin Elmer, Waltham, MA) in duplicate wells, to assemble the final assay plate consisting of duplicated dose ranges. Separately, a protein mixture consisting of His-tagged DCAF15 complex and biotin-carrying RBM39, each at 408 nM (2.04×), was prepared in 50 mM HEPES, pH 7.5, 100 mM NaCl, 2 mM MgCl2, 0.1% BSA, 2 mM TCEP, 0.05% Tween-20 (dilution buffer). 9.8 ul of this protein mixture was then mixed with the compounds in the assay plate and incubated for one hour at room temperature. Reaction mixtures with no compounds added were included as negative controls, while a His-tagged and biotinylated GST protein was included to track general assay performance. Nickel Chelate AlphaLISA Acceptor beads (cat. #AL108M, Perkin Elmer, MA) and AlphaScreen Streptavidin Donor beads (cat. #6760002, Perkin Elmer, Waltham, MA) were prepared separately in the dilution buffer as 4× stocks (80 ug/ml). The beads were then added to the assay plate sequentially with incubation at room temperature for 1-2 hours after each addition. Signals were recorded using EnVision 2104 Multilabel Plate Reader (Perkin Elmer, Waltham, MA) and titration curves were generated in GraphPad Prism (7.00, GraphPad, La Jolla, CA).

[2] = biological target: DCAF15 (Homo sapiens, UniProt Q66K64); experiment: HTRF competition assay, binary interaction between compounds and DCAF15; type: binding; conditions: competition with Alexa Fluor 647 tracer, His-tagged DCAF15 complex
Description: Example 7: Measurement of Binary Interaction Between Compounds And DCAF15 Using Homogeneous Time Resolved Fluorescence (HTRF)
DCAF15 interactions with test compounds were monitored using HTRF competition assays (Cisbio, Bedford, MA). Test compounds were first collected in a 384-well microplate (cat. #781280, Grenier Bio-One, Monroe, NC) as 10 mM stocks in 100% dimethyl sulfoxide (DMSO). A second stock plate (cat. #781280, Grenier Bio-One, Monroe, NC) was prepared through 3-fold serial dilution in DMSO of the afore-mentioned stocks using a Mosquito HTS dispenser (mosquito@ HTS, SPT Labtech, Boston, MA). 0.2 ul of these diluted stocks were then dispensed into a 384-well Optiplate (cat. #6007290, Perkin Elmer, Waltham, MA) in duplicate wells, to assemble the assay plate. The tracer molecule containing an Alexa Fluor 647 probe was prepared in 25 mM HEPES pH 7.5, 100 mM NaCl, 0.1 mg/ml BSA, 0.005% Tween 20, 0.5 mM TCEP (dilution buffer) to 612 nM (2.04×). Separately, His-tagged DCAF15 complex was prepared at 32 nM (4×) in the dilution buffer, and mAb Anti-6His-Eu cryptate Gold (cat. #61H12KLA, Cisbio, Bedford, MA) at 4× dilution in the detection buffer (cat. #61 DB9RDF, Cisbio, Bedford, MA). These two solutions were mixed and incubated for 15 min at room temperature. 9.8 ul of the tracer solution and 10 ul of the DCAF15/mAb Anti-6His-Eu cryptate Gold mixture were added sequentially to each well in the assay plate. Reaction mixtures with no DCAF15 added were included as positive controls. The final mixture was incubated for an hour at room temperature and spun down briefly before data collection at 615 nm and 666 nm using En Vision 2104 Multilabel Plate Reader (Perkin Elmer, Bedford, MA). Binding was estimated based on ratiometric analysis and titration curves were generated in GraphPad Prism (7.00, GraphPad, La Jolla, CA).

EC50 [1] [µM]	IC50 [2] [µM]	Compound
1 to 10	–	Nc1ccc(S(=O)(=O)Nc2cnc3c(Cl)cccc3n2)cc1 [CQS, cloroquinoxaline sulfonamide, reference compound]
< 1	1 to 10	NC1CCC(Oc2ccc(S(=O)(=O)Nc3ccc(Cl)c4c(Cl)c[nH]c34)cc2)CC1 (centres unmarked) [Compound 3]
< 1	1 to 10	N[C@H]1CC[C@H](Oc2ccc(S(=O)(=O)Nc3ccc(Cl)c4c(Cl)c[nH]c34)cc2)CC1 [Compound 5]
< 1	10 to 100	N[C@@H]1CCC[C@@H](Oc2cccc(S(=O)(=O)Nc3ccc(Cl)c4c(Cl)c[nH]c34)c2)C1 [Compound 6]
< 1	1 to 10	N[C@@H]1CCC[C@@H](Oc2ccc(S(=O)(=O)Nc3ccc(Cl)c4c(Cl)c[nH]c34)cc2)C1 [Compound 7]
> 100	> 100	O=C(N[C@@H]1CCC[C@@H](Oc2ccc(S(=O)(=O)Nc3ccc(Cl)c4c(Cl)c[nH]c34)cc2)C1)OCc1ccccc1 [Compound 13]
1 to 10	1 to 10	NC[C@H]1CC[C@H](Oc2ccc(S(=O)(=O)Nc3ccc(Cl)c4c(Cl)c[nH]c34)cc2)CC1 [Compound 15]
< 1	1 to 10	O=S(=O)(Nc1ccc(Cl)c2c(Cl)c[nH]c12)c1cccc(O[C@H]2CC[C@H](N3CCOCC3)CC2)c1 [Compound 16]
< 1	10 to 100	O=S(=O)(Nc1ccc(Cl)c2c(Cl)c[nH]c12)c1ccc(O[C@H]2CC[C@H](N3CCOCC3)CC2)cc1 [Compound 17]
> 100	> 100	O=S(=O)(Nc1ccc(Cl)c2c(Cl)c[nH]c12)c1cccc(O[C@H]2CC[C@H](OCc3ccccc3)CC2)c1 [Compound 18]
> 100	> 100	O=S(=O)(Nc1ccc(Cl)c2c(Cl)c[nH]c12)c1ccc(O[C@H]2CC[C@H](OCc3ccccc3)CC2)cc1 [Compound 19]
1 to 10	> 100	O=S(=O)(Nc1ccc(Cl)c2c(Cl)c[nH]c12)c1cccc(O[C@@H]2C[C@@H]3C[C@@H]3C2)c1 [Compound 20]
1 to 10	> 100	O=S(=O)(Nc1ccc(Cl)c2c(Cl)c[nH]c12)c1ccc(O[C@@H]2C[C@@H]3C[C@@H]3C2)cc1 [Compound 21]
< 1	1 to 10	CC1(Oc2ccc(S(=O)(=O)Nc3ccc(Cl)c4c(Cl)c[nH]c34)cc2)CCNCC1 [Compound 22, N-(3,4-dichloro-1H-indol-7-yl)-4-((4-methylpiperidin-4-yl)oxy)benzenesulfonamide]
< 1	1 to 10	CC1(Oc2ccc(S(=O)(=O)Nc3ccc(Cl)c4c(Cl)c[nH]c34)cc2)CCN(CCO)CC1 [Compound 23, N-(3,4-dichloro-1H-indol-7-yl)-4-((1-(2-hydroxyethyl)-4-methylpiperidin-4-yl)oxy)benzenesulfonamide]
< 1	1 to 10	CN1CC2(CC(Oc3ccc(S(=O)(=O)Nc4ccc(Cl)c5c(Cl)c[nH]c45)cc3)C2)C1 [Compound 24, N-(3,4-dichloro-1H-indol-7-yl)-4-((2-methyl-2-azaspiro[3.3]heptan-6-yl)oxy)benzenesulfonamide]
< 1	1 to 10	O=S(=O)(Nc1ccc(Cl)c2c(Cl)c[nH]c12)c1ccc(OC2CC3(CNC3)C2)cc1 [Compound 25, 4-((2-azaspiro[3.3]heptan-6-yl)oxy)-N-(3,4-dichloro-1H-indol-7-yl)benzenesulfonamide]
< 1	10 to 100	O=S(=O)(Nc1ccc(Cl)c2c(Cl)c[nH]c12)c1cccc(OC2CCC3(CC2)CNC3)c1 [Compound 26]
1 to 10	1 to 10	O=S(=O)(Nc1ccc(Cl)c2c(Cl)c[nH]c12)c1ccc(OC2CCC3(CC2)CNC3)cc1 [Compound 27]
1 to 10	10 to 100	O=S(=O)(Nc1ccc(Cl)c2c(Cl)c[nH]c12)c1cccc(OC2CCC3(CCNCC3)CC2)c1 [Compound 32]

EC50 [1] [µM]	IC50 [2] [µM]	Compound
1 to 10	> 100	O=S(=O)(Nc1ccc(Cl)c2c(Cl)c[nH]c12)c1ccc(Oc2ccccc2)c(Cl)c1 [Compound 34]
10 to 100	> 100	O=S(=O)(Nc1ccc(Cl)c2c(Cl)c[nH]c12)c1ccc(Oc2ccc(Br)cc2)cc1 [Compound 35]
1 to 10	10 to 100	O=S(=O)(Nc1ccc(Cl)c2c(Cl)c[nH]c12)c1ccc(Oc2ccc(F)cc2)cc1 [Compound 36]
1 to 10	> 100	N#Cc1ccc(Oc2ccc(S(=O)(=O)Nc3ccc(Cl)c4c(Cl)c[nH]c34)cc2)cc1 [Compound 37]
< 1	1 to 10	O=S(=O)(Nc1ccc(Cl)c2c(Cl)c[nH]c12)c1ccc(OC(F)F)c(F)c1 [Compound 38]
< 1	> 100	O=S(=O)(Nc1ccc(Cl)c2c(Cl)c[nH]c12)c1ccc(OCC2COC2)cc1 [Compound 40]
< 1	1 to 10	CN1CC[C@@H](c2ccc(F)cc2)[C@H](COc2cccc(S(=O)(=O)Nc3ccc(Cl)c4c(Cl)c[nH]c34)c2)C1 [Compound 41]
1 to 10	1 to 10	CN1CC[C@@H](c2ccc(F)cc2)[C@H](COc2ccc(S(=O)(=O)Nc3ccc(Cl)c4c(Cl)c[nH]c34)cc2)C1 [Compound 42]
1 to 10	> 100	CCOc1cc(N2CCC[C@H](COc3cccc(S(=O)(=O)Nc4ccc(Cl)c5c(Cl)c[nH]c45)c3)C2)ncn1 [Compound 43]
1 to 10	> 100	CCOc1cc(N2CCC[C@H](COc3ccc(S(=O)(=O)Nc4ccc(Cl)c5c(Cl)c[nH]c45)cc3)C2)ncn1 [Compound 44]
< 1	10 to 100	O=S(=O)(Nc1ccc(Cl)c2c(Cl)c[nH]c12)c1cccc(OC[C@@H]2CCCNC2)c1 [Compound 45]
1 to 10	10 to 100	O=S(=O)(Nc1ccc(Cl)c2c(Cl)c[nH]c12)c1ccc(OC[C@@H]2CCCNC2)cc1 [Compound 46]
< 1	10 to 100	O=S(=O)(Nc1ccc(Cl)c2c(Cl)c[nH]c12)c1cccc(OC[C@H]2[C@@H]3CNC[C@@H]32)c1 [Compound 47]
< 1	10 to 100	O=S(=O)(Nc1ccc(Cl)c2c(Cl)c[nH]c12)c1ccc(OC[C@H]2[C@@H]3CNC[C@@H]32)cc1 [Compound 48]
1 to 10	> 100	O=C(OCc1ccccc1)N1C[C@@H]2[C@@H](COc3cccc(S(=O)(=O)Nc4ccc(Cl)c5c(Cl)c[nH]c45)c3)[C@@H]2C1 [Compound 49]
> 100	> 100	O=C(OCc1ccccc1)N1C[C@@H]2[C@@H](COc3ccc(S(=O)(=O)Nc4ccc(Cl)c5c(Cl)c[nH]c45)cc3)[C@@H]2C1 [Compound 50]
1 to 10	> 100	O=S(=O)(Nc1ccc(Cl)c2c(Cl)c[nH]c12)c1cccc(OCc2cccc(OC(F)F)c2)c1 [Compound 53]
1 to 10	> 100	O=S(=O)(Nc1ccc(Cl)c2c(Cl)c[nH]c12)c1ccc(OCc2cccc(OC(F)F)c2)cc1 [Compound 54]
< 1	–	NS(=O)(=O)c1ccc(S(=O)(=O)Nc2cccc3c(Cl)c[nH]c23)cc1 [Indisulam, indisulam, reference compound]
1 to 10	–	O=C(NS(=O)(=O)c1ccc(Br)s1)c1ccc(Cl)cc1Cl [Tasisulam, tasisulam, reference compound]
